Test results: patent US4521537A, “Spiro[2H-1,4-benzodioxepin-3(5H)4'-piperidine and -3'-pyrrolidine] compounds and their use as antihypertensive agents” (Hoechst-Roussel Pharmaceuticals Incorporated, priority 1984, dated 1985)
Counter-ions that a name gives are not always drawn. Like-named read-outs stand apart in the source and are kept apart here.

Legend:
[1] = system: spontaneous hypertensive rat; test: antihypertensive activity, spontaneous hypertensive rat (SHR) test, indirect tail cuff method; assay type: in vivo; details: Table III
Protocol: Compounds of this invention are useful as antihypertensive agents due to their ability to depress blood pressure in mammals. Antihypertensive activity is measured in the spontaneous hypertensive rat by the indirect tail cuff method described by A. Schwartz, Ed., Methods in Pharmacology, Vol. page 135, Appleton Century Crafts, New York (1971). […] The drop in blood pressure is measured on the third day following administration. The antihypertensive activity is expressed as mm Hg decrease in mean arterial blood pressure.

mice = test: phenylquinone-induced writhing test in mice (PQW), analgesia; assay type: in vivo, male, CD-1 mice; details: Mus musculus; for ED50: SC, printed in PQW % column, read-out: ED50 (PQW)
Protocol: Compounds of this invention produce analgesia when administered to mammals. A phenylquinone-induced writhing test in mice (PQW) was used as an assay to detect analgesia. The procedure employed was a modification of Siegmund, E., Cadmus, R. and Lu, G: Proc. Soc. Exptl. Bio. Med., 95: 729 (1957). 12.5 mg of phenyl-p-benzoquinone were dissolved in 5 ml of 95% ethanol and q.s. to 100 ml with distilled water and administered to mice (10 ml/kg, i.p.). This produces a characteristic "writhe" which is defined as an inward rotation of one or more feet with twisting and turning of the trunk, drawing in of the abdominal wall, lordosis and arching of the back.
A total of 28 male, CD-1 mice (18 to 30 grams) were employed for a time response. Animals recived food and water ad libitum. Drugs to be tested were prepared with distilled water and, if insoluble, one drop of a suitable surfactant was added.
Twenty animals (5/group) were administered the drug 15, 30, 45 and 60 minutes prior to phenylquinone injections. Control animals (2/group) received an equal amount of vehicle. After the administration of phenylquinone the mice were placed separately into one-liter beakers and 5 minutes were allowed to lapse. The mice were then observed for a period of 10 minutes and the number of writhes were recorded for each animal. The formula for computing percent inhibition is: [formula]
The time period with the greatest percent of inhibition is considered the peak time.
A dose range is run in the same fashion as a time response except 10 animals per group were tested at the peak time of drug activity. Fifty animals, 4 drug groups, and a vehicle control were employed. Animals were dosed and tested in a randomized manner. An estimated ED50 was calculated by a computer linear regression analysis.

[2] = Table III, 20 mg/kg SC, read-out: PQW % (percent inhibition of writhing)

Structure (SMILES) | SHR mm Hg (decrease in mean arterial blood pressure) ([1]; 50 mg/kg PO) | change in vivo at 20 mg/kg (mice; [2]) | SHR mm Hg (decrease in mean arterial blood pressure) ([1]; 0.3 mg/kg PO) | change in vivo at 5 mg/kg (mice; Table III, 5 mg/kg SC, read-out: PQW % (percent inhibition of writhing)) | ED50 (mice; Table III) | change in vivo at 20 mg/kg (mice; sc, read-out: PQW % (percent inhibition of writhing))
CCNC(=O)N1CCC2(CC1)OCc1ccccc1OC2C (stereo not drawn) [Example 71, N-Ethyl-2-methylspiro[2H-1,4-benzodioxepin-3(5H)4'-piperidine]-1'-carboxamide] | -67 mm Hg | -46% | – | – | – | –
CCOC(=N)N1CCC2(CC1)OCc1ccccc1OC2C (stereo not drawn) [Example 72, 2-Methylspiro[2H-1,4-benzodioxepin-3(5H)4'-piperidine]-1'-carboximidic acid, ethyl ester hydrochloride] | -20 mm Hg | -51% | – | – | – | –
CC1Oc2ccc(F)cc2COC12CCN(CCCC(c1cccc(F)c1)c1cccc(F)c1)CC2 (stereo not drawn) [Example 76, 1'-[4,4-Bis(3-fluorophenyl)butyl]-7-fluoro-2-methylspiro[2H-1,4-benzodioxepin-3(5H)4'-piperidine]hydrochloride] | – | -38% | -31 mm Hg | – | – | –
CC1Oc2ccc(F)cc2COC12CCN(CCCCc1ccc(F)cc1)CC2 (stereo not drawn) [Example 77, 1'-[4-(4-Fluorophenyl)butyl]-7-fluoro-2-methylspiro[2H-1,4-benzodioxepin-3(5H)4'-piperidine]hydrochloride] | -40 mm Hg | – | – | -66% | 4.3 mg/kg | –
CC1Oc2ccc(Cl)cc2COC12CCN(CCCCc1ccc(F)cc1)CC2 (stereo not drawn) [Example 78, 1'-[4-(4-Fluorophenyl)butyl]-7-chloro-2-methylspiro[2H-1,4-benzodioxepin-3(5H)4'-piperidine]hydrochloride] | -61 mm Hg | -68% | – | – | 6.8 mg/kg | –
CC1Oc2ccc(Cl)cc2COC12CCN(CCCC(c1cccc(F)c1)c1cccc(F)c1)CC2 (stereo not drawn) [Example 79, 1'-[4,4-Bis(3-fluorophenyl)butyl]-7-chloro-2-methylspiro[2H-1,4-benzodioxepin-3(5H)4'-piperidine]hydrochloride] | – | -91% | -27 mm Hg | – | – | –
CC(=O)N1CCC2(CC1)OCc1cc([N+](=O)[O-])ccc1OC2C (stereo not drawn) [Example 80, 1'-Acetyl-2-methyl-7-nitrospiro[2H-1,4-benzodioxepin-3(5H)4'-piperidine]] | -19 mm Hg | -22% | – | – | – | –
CC1Oc2ccc(Cl)cc2COC12CCN(CCOC(c1ccc(F)cc1)c1ccc(F)cc1)CC2 (stereo not drawn) [Example 85, 7-Chloro-1'-[2-(bis(4-fluorophenyl)methoxy)ethyl]-2-methylspiro[2H-1,4-benzodioxepin-3(5H)4'-piperidine]hydrochloride] | -46 mm Hg | – | – | – | – | -44%
CC1Oc2ccc(Cl)cc2COC12CCN(CCCCC(c1ccc(F)cc1)c1ccc(F)cc1)CC2 (stereo not drawn) [Example 86, 7-Chloro-2-methyl-1'-[5,5-bis(4-fluorophenyl)pentyl]-spiro[2H-1,4-benzodioxepin-3(5H)4'-piperidine]hydrochloride] | -42 mm Hg | -25% | – | – | – | –
CC1Oc2ccccc2COC12CCN(CC(O)COc1ccccc1)CC2 (stereo not drawn) [Example 88, 2-Methyl-1'-(2-hydroxy-3-phenoxypropyl)spiro[2H-1,4-benzodioxepin-3(5H)4'-piperidine]hydrochloride] | -34 mm Hg | -99% | – | – | – | –
COc1ccc(OCC(O)CN2CCC3(CC2)OCc2ccccc2OC3C)cc1 (stereo not drawn) [Example 89, 2-Methyl-1'-[2-hydroxy-3-(4-methoxyphenoxy)propyl]-spiro[2H-1,4-benzodioxepin-3(5H)4'-piperidine]hydrochloride] | -40 mm Hg | -57% | – | – | – | –
CC1Oc2ccc(Cl)cc2COC12CCN(CC(O)COc1ccccc1)CC2 (stereo not drawn) [Example 91, 7-Chloro-2-methyl-1'-(2-hydroxy-3-phenoxypropyl)spiro[2H-1,4-benzodioxepin-3(5H)4'-piperidine]hydrochloride] | -29 mm Hg | -67% | – | – | – | –
COc1ccc(OCC(O)CN2CCC3(CC2)OCc2cc(Cl)ccc2OC3C)cc1 (stereo not drawn) [Example 92, 7-Chloro-2-methyl-1'-[2-hydroxy-3-(4-methoxyphenoxy)propyl]spiro[2H-1,4-benzodioxepin-3(5H)4'-piperidine]hydrochloride] | -66 mm Hg | -47% | – | – | – | –
CC1Oc2ccc(Cl)cc2COC12CCN(CC(O)COc1ccc(F)cc1)CC2 (stereo not drawn) [Example 93, 7-Chloro-2-methyl-1'-[2-hydroxy-3-(4-fluorophenoxy)propyl]spiro[2H-1,4-benzodioxepin-3(5H)4'-piperidine]hydrochloride] | -24 mm Hg | -88% | – | – | – | –
